Laboratory results: patent US20170176446A1, “Methods for Determining the Oncogenic Condition of Cell, Uses Thereof, and Methods for Treating Cancer” (INSERM (INSTITUT NATIONAL DE LA SANTE ET DE LA RECHERCHE …, priority 2009, published 2017)

Key:
[1] = tested on: MCF7 cells; experiment: OCDO production by MCF7 cells incubated with [14C]CE, thin-layer chromatography; format: cell-based, human; details: for % CE / % CT / % OCDO: [14C]CEα, concentration given with each compound, share of labeled oxysterols
From the text: For assays 1 to 5 and in some of the examples given later in this patent application, MCF7 tumor cells, which originate from the American Tissue Culture Collection (ATCC), were used. […] It is desired to study the activity of ChEH in […] cells by silica thin-layer chromatography. The compounds that it is desired to visualize are the CE and CT compounds defined above. In order to visualize the spots corresponding to CE and CT on a chromatography plate, ^14C-labeled CE and CT compounds were synthesized.
In order to be used in assays 1 to 5 which follow, the cells are seeded into 6-well plates at a density of 80 000 cells in a volume of 2 ml. […] After the incubation time desired for the assay, the medium is collected, the cells are washed with cold PBS (phosphate buffer) (2 ml per well) which is pooled with the medium. The cells are then scraped into cold PBS (1 ml for 3 wells); the wells are again rinsed with cold PBS (1 ml for 3 wells). The cell suspension obtained is centrifuged at 1000 rpm for 5 min at 4° C. […] Throughout the rest of this description, the vehicle solvent used is the same as that defined above.
The aqueous and organic radioactivities are counted. The organic phases are brought to dryness under argon. The residue is resuspended in 60 μl of ethanol and then deposited, in a proportion of 20 μl per lane, on to the glass-backed silica plates (Whatman LK-6-DF, 20×20), which are used in the various assays (these plates having been preheated at 100° C. for 1 hour). The migration solvent used is ethyl acetate. The chromatography plates are placed in contact with a “phosphor-screen” plate in a cassette overnight. […] In order to evaluate the more or less dense nature of the spots obtained on the plates, the radioactivity is quantified by densitometry with the “Imagequant”™ computer program.
(§1) Generally, in order to establish the percentages of OCDO inhibition from the thin-layer chromatography (TLC) plates obtained as in assay 2, the radioactive metabolites are identified and quantified on the basis of said plates using a europium-sensitive plate of GP Phosphor screen type (GE Healthcare) and a Storm 840 phosphorimagor (GE Healthcare). The proportion of radiolabeled oxysterols is determined on the autoradiogram obtained by densitometry using the Image Quant 5.2 software. The percentage is calculated on the basis of the ratio between the amount of oxysterols quantified divided by the sum of the amounts of oxysterols (CEE+CE+CT+OCDO). Since the CEE (CE ester) originates exclusively from the CE, the percentage CE is calculated on the basis of the ratio (CE+CEE)/(CE+CEE+CT+OCDO).
Assay 2 given above was therefore completed by measuring the amounts of the products present when the MCF7 tumor cells are incubated as indicated in detail in assay 2.
In order to establish that the link that exists between, on the one hand, the ability of various compounds to inhibit OCDO in an MCF7 tumor cell and, on the other hand, their quality as a ChEH inhibitor, is well-founded, the inhibition coefficients Ki for ChEH relating to a certain number of products was calculated and the production of OCDO by MCF7 cells after incubation of the cells with the same products was measured according to the protocol defined in assay 2 of the present patent application.

[2] = molecular target: T1, ChEH (Rattus norvegicus, UniProt Q9JJ46); experiment: Determination of the Ki for ChEH on rat liver microsome proteins (Dixon method); format: biochemical; details: 150 μg rat liver microsome proteins, [14C]CEα
T1 construct: 150 μg of rat liver microsome proteins are incubated; from tissue; host or cells: rat liver microsomes
T1 sequence (Q9JJ46 1-230): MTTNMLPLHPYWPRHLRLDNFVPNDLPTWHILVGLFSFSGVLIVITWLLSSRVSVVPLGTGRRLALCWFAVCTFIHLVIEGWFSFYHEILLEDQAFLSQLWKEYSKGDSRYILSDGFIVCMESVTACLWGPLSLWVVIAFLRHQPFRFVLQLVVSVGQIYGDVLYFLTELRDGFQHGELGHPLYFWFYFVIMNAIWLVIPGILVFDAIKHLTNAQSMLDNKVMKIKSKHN

[3] = tested on: MCF7 cells; experiment: OCDO production by MCF7 cells incubated with [14C]CT for 24 hours (example 11); format: cell-based, human; details: 10 μM, control = 100
Procedure: as §1
The following experiments were carried out: MCF7 tumor cells were placed in the presence of 0.5 μM of [^14C]CT and were then incubated for 24 hours in the presence of one of the following products: • 1. vehicle solvent (0.1% ethanol in a PBS buffer) serving as a control (lane 1) • 2. 10 μM of progesterone • 3. 10 μM of U18666A • 4. 100 nM of TCDD • 5. 10 μM of benzo(A)pyrene • 6. 10 μM of resveratrol • 7. 10 μM of PDM2 (Ant. 1).
Thin-layer chromatographies were carried out and FIG. 24 represents the plate obtained. The OCDO production in the treated cells was quantified from the spots of the various lanes, by applying the protocol given in detail in example 7. The results of this quantification are represented by the histogram of FIG. 24.
The amounts of OCDO produced by MCF7 cells, when they are incubated according to the same protocol as defined above with other Ahr receptor antagonists, was also measured, the control test being brought to 100 and the OCDO production being expressed as % of the control (same control as above).

[4] = concentration in μM in parentheses after each molecule, control = 100

## CC(C)(c1ccccc1)c1ccc(OCCN2CCCC2)cc1 [PCPE, 1-(2-(4-(2-phenylpropan-2-yl)phenoxy)ethyl)-pyrrolidine]
[1]; [4]
  OCDO production by MCF-7 (% control): <1 % control
[2]
  Ki: 34.7 ± 8 nM

## CCCC(C(=O)OCCN(CC)CC)(c1ccccc1)c1ccccc1 [SKF-525A, 2-diethylaminoethyl-2,2-diphenylpentanoate]
[1]; [4]
  OCDO production by MCF-7 (% control): <1 % control
[2]
  Ki: 1904 ± 11 nM

## CC(=O)N1CCN(c2ccc(OCC3COC(Cn4ccnc4)(c4ccc(Cl)cc4Cl)O3)cc2)CC1 (centres unmarked) [ketoconazole]
[1]; 10 μM ketoconazole, three days, MCF7 cells
  production of the epoxysterol CE and of its derivatives CT and OCDO: inhibition of the production of the epoxysterol CE and of its derivatives

## Oc1ccc(C=Cc2cc(O)cc(O)c2)cc1 [Resveratrol]
[3]
  OCDO production by MCF-7 (% control): <1 % control

## (E)-N,3,6,6-tetramethyl-N-(naphthalen-1-ylmethyl)hept-2-en-4-yn-1-amine [Terbinafine]
[1]; [4]
  OCDO production by MCF-7 (% control): <1 % control
[2]
  Ki: 9105 ± 33 nM

## COc1cc(/C=C/c2ccc(F)cc2)cc(OC)c1 [Ant 5, (E)-1-(4′-fluorophenyl)-2-(3,5-dimethoxy-phenyl)ethene]
[3]
  OCDO production by MCF-7 (% control): <1 % control

## CCN(CC)CCOc1ccc(C(O)(Cc2ccc(Cl)cc2)c2ccc(C)cc2)cc1 (centres unmarked) [Triparanol]
[1]; [4]
  OCDO production by MCF-7 (% control): <1 % control
[2]
  Ki: 39.5 ± 3 nM

## Fc1ccc(/C=C/c2cc(F)cc(F)c2)cc1 [Ant 3, (E)-1-(4′-fluorophenyl)-2-(3,5-fluorophenyl)-ethene]
[3]
  OCDO production by MCF-7 (% control): <1 % control

## CCN(CC)CCO[C@H]1CC[C@@]2(C)C(=CC[C@@H]3[C@@H]2CC[C@]2(C)C(=O)CC[C@@H]32)C1 [U-18666A, 3-beta-(2-(diethylamino)ethoxy)androst-5-en-17-one]
[1]; [4]
  OCDO production by MCF-7 (% control): <1 % control
[2]
  Ki: 90.3 ± 5 nM

## CCN(CC)CCOc1ccc(/C(=C(\Cl)c2ccccc2)c2ccccc2)cc1 [Clomiphene, 2-[4-[(Z)-2-chloro-1,2-di(phenyl)ethenyl]-phenoxy]-N,N-diethylethanamine]
[1]; [4]
  OCDO production by MCF-7 (% control): <1 % control

## Clc1ccccc1CNC[C@H]1CC[C@H](CNCc2ccccc2Cl)CC1 [AY-9944, trans-1,4-bis(2-chlorobenzaminomethyl)-cyclohexane]
[1]; [4]
  OCDO production by MCF-7 (% control): <1 % control
[2]
  Ki: 649 ± 6 nM

## O=C(CCCN1CCC(O)(c2ccc(Cl)cc2)CC1)c1ccc(F)cc1 [Haloperidol, 4-(4-(4-chlorophenyl)-4-hydroxypiperidin-1-yl)-1-(4-fluorophenyl)butan-1-one]
[1]; [4]
  OCDO production by MCF-7 (% control): 42 % control

## O=C(c1ccc(OCCN2CCCCC2)cc1)c1c(-c2ccc(O)cc2)sc2cc(O)ccc12 [Raloxifene, [6-hydroxy-2-(4-hydroxyphenyl)-1-benzothiophen-3-yl]-[4-(2-piperidin-1-ylethoxy)phenyl]methanone]
[1]; MCF7 cells, three days
  % CE: 96.5%
  % CT: 3%
  % OCDO: 0.5%
[1]; [4]
  OCDO production by MCF-7 (% control): <1 % control
[2]
  Ki: 35.6 ± 4 nM

## FC(F)(F)c1ccc(/C=C/c2cc(C(F)(F)F)cc(C(F)(F)F)c2)cc1 [Ant 4, (E)-1-(4′-trifluoromethylphenyl)-2-(3,5-trifluoromethylphenyl)ethene]
[3]
  OCDO production by MCF-7 (% control): <1 % control

## COc1ccc(/C(=C(\c2ccccc2)[N+](=O)[O-])c2ccc(OCCN3CCCC3)cc2)cc1 [Nitromiphene, 1-[2-[4-[(Z)-1-(4-methoxyphenyl)-2-nitro-2-phenylethenyl]phenoxy]ethyl]pyrrolidine]
[1]; [4]
  OCDO production by MCF-7 (% control): <1 % control
[2]
  Ki: 17.7 ± 6 nM

## C[C@@H]1CN(CCCn2c3ccccc3c3ccccc32)C[C@H](C)N1 [Rimcazole, 9-[3-[(3S,5R)-3,5-dimethylpiperazin-1-yl]propyl]carbazole]
[1]; [4]
  OCDO production by MCF-7 (% control): 12 % control
[2]
  Ki: 2325 ± 8 nM

## CC(C)CCC[C@@H](C)[C@H]1CC[C@H]2[C@@H]3C[C@@H]4O[C@@]45C[C@@H](O)CC[C@]5(C)[C@H]3CC[C@]12C [CEα, 5,6-α-epoxycholestan-3β-ol]
[1]; MCF7 cells, three days
  % CE: 31.5%
  % CT: 41.5%
  % OCDO: 27%

## CCN(CC)CCOc1ccc(C2C[C@]3(C)C(O)CC[C@H]3[C@@H]3CCc4cc(O)ccc4[C@@H]23)cc1 (some centres unmarked) [RU 39,411, 11-[4-N,N-[diethylaminoethoxy]phenyl]estra-1,3,5(10)triene-3,17-diol]
[1]; [4]
  OCDO production by MCF-7 (% control): <1 % control
[2]
  Ki: 155 ± 8 nM

## Clc1ccc(/C=C/c2cc(Cl)cc(Cl)c2)cc1 [Ant 1, (E)-1-(4′-chlorophenyl)-2-(3,5-dichlorophenyl)-ethene]
[3]
  OCDO production by MCF-7 (% control): <1 % control

## CC[C@H](C)C(=O)O[C@H]1C[C@@H](C)C=C2C=C[C@H](C)[C@H](CC[C@@H]3C[C@@H](O)CC(=O)O3)[C@H]21 [lovastatin]
[1]; 10 μM, control brought to the value 100
  OCDO production by the MCF7 cells: less than 1

## Ibogaine
[1]
  OCDO production by MCF-7 (% control): 25 % control

## CN1CCN(CCCN2c3ccccc3Sc3ccc(C(F)(F)F)cc32)CC1 [Trifluoroperazine, 10-[3-(4-methylpiperazin-1-yl)propyl]-2-(trifluoromethyl)phenothiazine]
[1]; [4]
  OCDO production by MCF-7 (% control): <1 % control
[2]
  Ki: 135 ± 7 nM

## CCN(CC)CCOc1ccc(Cc2ccccc2)cc1 [Tesmilifene, 2-(4-benzylphenoxy)-N,N-diethylethanamine]
[1]; MCF7 cells, three days
  % CE: 80.7%
  % CT: 10.5%
  % OCDO: 8.8%
[1]; [4]
  OCDO production by MCF-7 (% control): <1 % control
[2]
  Ki: 62.4 ± 3 nM

## COc1ccc(/C=C/c2cc(F)cc(F)c2)cc1 [Ant 2, (E)-1-(4′-methoxyphenyl)-2-(3,5-fluorophenyl)-ethene]
[3]
  OCDO production by MCF-7 (% control): <1 % control

## CC/C(=C(\c1ccc(O)cc1)c1ccc(OCCN(C)C)cc1)c1ccccc1 [4OH-Tamoxifen, 4-[(Z)-1-[4-(2-dimethylaminoethyloxy)-phenyl]-2-phenylbut-1-enyl]phenol]
[1]; [4]
  OCDO production by MCF-7 (% control): <1 % control
[2]
  Ki: 145 ± 4 nM

## CCCCc1oc2ccccc2c1C(=O)c1cc(I)c(OCCN(CC)CC)c(I)c1 [Amiodarone, (2-butyl-1-benzofuran-3-yl)-[4-(2-diethylaminoethyloxy)-3,5-diiodophenyl]methanone]
[1]; [4]
  OCDO production by MCF-7 (% control): 8 % control
